Experimental findings from patent US9499538B2, “Estrogen receptor modulators and uses thereof” (Seragon Pharmaceuticals, Inc., priority 2012, dated 2016) are described below.

In general, IC50 refers to the concentration that gives 50% inhibition. The low end stands for higher potency, the high end for lower potency.

One experiment has as its system MCF-7 cells. Kind of experiment: Breast Cancer Cell Viability Assays (MCF-7, CellTiter-Glo). The format is cell-based. Particulars: 5 days' compound exposure; for IC50: Homo sapiens, MCF7, 120 h. How it is done:
MCF-7 cells were adjusted to a concentration of 20,000 cells per mL in RPMI containing 10% FBS and 20 mM HEPES. 16 microliters of the cell suspension (320 cells) was added to each well of a 384 well plate, and the cells were incubated overnight to allow the cells to adhere. The following day an eleven point, serial semilog dilution of each compound was added to the cells in 16 μL at a final concentration ranging from 0.3-0.000003 μM. After 5 days' compound exposure, 16 μL of CellTiter-GLo (Promega, Madison Wis.) was added to the cells, and the relative luminescence units (RLUs) of each well were determined. CellTiter-Glo added to 32 μL of medium without cells was used to obtain a background value. The Percent viability of each sample was determined as follows: (RLU sample−RLU background/RLU untreated cells−RLU background)×100=% viability. […]
(Cellular ATP, detected with luciferase, serves as a proxy for viable cell number.)

For a further experiment, the target named is T1, ER-α in MCF-7 cells (Homo sapiens, UniProt P03372).
T1 construct: endogenous in cells; host or cells: MCF-7
T1 sequence (P03372 1-595): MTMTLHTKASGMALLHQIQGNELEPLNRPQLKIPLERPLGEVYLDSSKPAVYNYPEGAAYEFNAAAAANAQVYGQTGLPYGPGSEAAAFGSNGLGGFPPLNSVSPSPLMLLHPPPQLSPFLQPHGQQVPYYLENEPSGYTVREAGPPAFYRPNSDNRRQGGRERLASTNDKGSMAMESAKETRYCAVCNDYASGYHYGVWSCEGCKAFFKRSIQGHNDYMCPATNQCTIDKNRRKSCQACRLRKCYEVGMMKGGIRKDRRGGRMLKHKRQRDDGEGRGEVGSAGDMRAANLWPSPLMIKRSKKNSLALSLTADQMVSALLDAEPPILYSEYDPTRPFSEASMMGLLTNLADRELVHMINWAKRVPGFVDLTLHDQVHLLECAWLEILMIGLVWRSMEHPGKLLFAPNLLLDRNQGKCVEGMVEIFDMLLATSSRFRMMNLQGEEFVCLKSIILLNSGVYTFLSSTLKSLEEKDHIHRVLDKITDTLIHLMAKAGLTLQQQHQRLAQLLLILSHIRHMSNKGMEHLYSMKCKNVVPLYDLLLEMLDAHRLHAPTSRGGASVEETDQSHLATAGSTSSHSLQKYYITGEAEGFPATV
The experiment is described as follows: Breast Cancer Cell ER-α In Cell Western Assay (SP1). The format is cell-based. The note with it: 4 or 24 hr post compound addition; for Emax: MCF7, SP1 antibody, read-out: ER-α In Cell Western Assay (SP1) Max Response; for DC50: SP1 antibody, read-out: ER-α In Cell Western Assay (SP1) IC50. How it is done:
MCF-7 cells were adjusted to a concentration of 200,000 cells per mL in RPMI containing 10% charcoal-stripped FBS and 20 mM HEPES. 16 microliters of the cell suspension (3200 cells) was added to each well of a poly-D-lysine 384 well plate, and the cells were incubated overnight to allow the cells to adhere. The following day an eleven point, serial semilog dilution of each compound was added to the cells in 16 μL at a final concentration ranging from 0.3-0.000003 μM. At 4 or 24 hr post compound addition, the cells were fixed (10% formalin in PBS) for 20 minutes. Cells were permeablized in PBS 0.1% Triton and blocked with LICOR blocking buffer (50 μl/well, 90′). The wells were then incubated overnight at 4° C. with SP1 rabbit monoclonal Ab (Thermo Scientific) diluted 1:1000 in LICOR blocking buffer/0.1% Tween-20. Wells which were treated with blocking buffer with Tween but no antibody were used as a background control. Wells were washed with 0.1% Tween-20/PBS and then incubated in goat anti-rabbit IRDye™ 800CW (LICOR Inc.; 1:10000) and DRAQ5 DNA dye (1:2000 for 2 mM stock) diluted in LICOR blocking buffer containing 0.1% Tween-20 and 0.01% SDS for 60 minutes. Cells were washed (50 μl/well, 5′ each) in 0.1% Tween-20/PBS. Plates were scanned on a LICOR Odyssey infrared imaging system. Integrated intensities in the 800 nm channel and 700 nm channel were measured to determine levels of ER and DNA respectively. Percent ER levels were determined as follows: (Integrated intensity 800 nm sample/integrated intensity 700 nm sample)/(Integrated intensity 800 nm untreated cells/integrated intensity 700 nm untreated cells)×100=% ER levels. […]

Where only a bound is given, the exact number is not on record here.

With `N#Cc1c(/C(=C(/c2ccccc2)C2CCC2)c2ccc(/C=C/C(=O)O)cc2)ccc2[nH]ncc12` [Example 1, (E)-3-(4-((E)-1-(4-Cyano-1H-indazol-5-yl)-2-cyclobutyl-2-phenylvinyl)phenyl)acrylic acid], in the experiment with MCF-7 cells, the “MCF7 Viability Assay Max Response” value was “++ (++ = a single % value ≧ 40%)” and the IC50 is not above 100 nM. At ER-α in MCF-7 cells, the Emax was not below 40% and the DC50 was not above 100 nM.
For `O=C(O)/C=C/c1ccc(/C(=C(\c2ccccc2)C2CCC2)c2ccc3[nH]ncc3c2Cl)cc1` [Example 2, (E)-3-(4-((E)-1-(4-Chloro-1H-indazol-5-yl)-2-cyclobutyl-2-phenylvinyl)phenyl)acrylic acid], in the experiment on MCF-7 cells, the “MCF7 Viability Assay Max Response” value is given as “++ (++ = a single % value ≧ 40%)” and the IC50 is not above 100 nM. Further, at ER-α in MCF-7 cells, the Emax was not below 40% and the DC50 is not above 100 nM.
Regarding `CC/C(=C(/c1ccc(/C=C/C(=O)O)cc1)c1ccc2[nH]ncc2c1C#N)c1ccccc1` [Example 3, (E)-3-(4-((E)-1-(4-Cyano-1H-indazol-5-yl)-2-phenylbut-1-en-1-yl)phenyl)acrylic acid], in the experiment on MCF-7 cells, the “MCF7 Viability Assay Max Response” value is “++ (++ = a single % value ≧ 40%)” and the half-maximal inhibitory concentration (IC50) is not above 100 nM. Moreover, at ER-α in MCF-7 cells, the Emax was not below 40% and the DC50 was not above 100 nM.
With `O=C(O)/C=C/c1ccc(/C(=C(\c2ccccc2)C2CCC2)c2ccc3c(c2)CNC3=O)cc1` [Example 4, (E)-3-(4-((E)-2-Cyclobutyl-1-(1-oxoisoindolin-5-yl)-2-phenylvinyl)phenyl)acrylic acid], in the experiment on MCF-7 cells, the “MCF7 Viability Assay Max Response” value is reported as “++ (++ = a single % value ≧ 40%)” and the IC50 was not above 100 nM. For the same compound, on ER-α in MCF-7 cells, the Emax was not below 40% and the DC50 was not above 100 nM.
For the compound `O=C(O)/C=C/c1ccc(/C(=C(\c2ccc(F)cc2Cl)C2CCC2)c2ccc3c(c2)CNC3=O)cc1` [Example 5, (E)-3-(4-((E)-2-(2-Chloro-4-fluorophenyl)-2-cyclobutyl-1-(1-oxoisoindolin-5-yl)vinyl)phenyl)acrylic acid], in the experiment with MCF-7 cells, the “MCF7 Viability Assay Max Response” value was “++ (++ = a single % value ≧ 40%)” and the IC50 is not above 100 nM. For the same compound, at ER-α in MCF-7 cells, the Emax was not below 40% and the DC50 is not above 100 nM.
Consider `CC/C(=C(/c1ccc(/C=C/C(=O)O)cc1)c1ccc2[nH]ncc2c1C#N)c1ccc(F)cc1Cl` [Example 6, (E)-3-(4-((E)-2-(2-Chloro-4-fluorophenyl)-1-(4-cyano-1H-indazol-5-yl)but-1-en-1-yl)phenyl)acrylic acid], for which, in the experiment with MCF-7 cells, the “MCF7 Viability Assay Max Response” value is “++ (++ = a single % value ≧ 40%)” and the IC50 was not above 100 nM. On ER-α in MCF-7 cells, the Emax was not below 40% and the DC50 was not above 100 nM.
Take `CC/C(=C(/c1ccc(/C=C/C(=O)O)cc1)c1ccc2[nH]nc(F)c2c1F)c1ccccc1` [Example 7, (E)-3-(4-((E)-1-(3,4-Difluoro-1H-indazol-5-yl)-2-phenylbut-1-en-1-yl)phenyl)acrylic acid]: in the experiment with MCF-7 cells, the “MCF7 Viability Assay Max Response” value is given as “++ (++ = a single % value ≧ 40%)” and the IC50 was not above 100 nM. On ER-α in MCF-7 cells, the Emax is not below 40% and the DC50 is not above 100 nM.
Regarding `CC/C(=C(/c1ccc(/C=C/C(=O)O)cc1)c1ccc2[nH]ncc2c1OC)c1ccccc1` [Example 8, (E)-3-(4-((E)-1-(4-Methoxy-1H-indazol-5-yl)-2-phenylbut-1-en-1-yl)phenyl)acrylic acid], in the experiment with MCF-7 cells, the “MCF7 Viability Assay Max Response” value is reported as “++ (++ = a single % value ≧ 40%)” and the IC50 is not above 100 nM. On ER-α in MCF-7 cells, the Emax is not below 40% and the DC50 is not above 100 nM.
For the compound `COc1c(/C(=C(/c2ccccc2)C2CCC2)c2ccc(/C=C/C(=O)O)cc2)ccc2[nH]ncc12` [Example 9, (E)-3-(4-((E)-2-Cyclobutyl-1-(4-methoxy-1H-indazol-5-yl)-2-phenylvinyl)phenyl)acrylic acid], in the experiment with MCF-7 cells, the “MCF7 Viability Assay Max Response” value is listed as “++ (++ = a single % value ≧ 40%)” and the IC50 is not above 100 nM. For the same compound, at ER-α in MCF-7 cells, the Emax is not below 40% and the DC50 is not above 100 nM.
Take `N#Cc1c(/C(=C(/c2ccccc2F)C2CCC2)c2ccc(/C=C/C(=O)O)cc2)ccc2[nH]ncc12` [Example 10, (E)-3-(4-((E)-1-(4-Cyano-1H-indazol-5-yl)-2-cyclobutyl-2-(2-fluorophenyl)vinyl)phenyl)acrylic acid]: in the experiment with MCF-7 cells, the “MCF7 Viability Assay Max Response” value is on record as “++ (++ = a single % value ≧ 40%)” and the IC50 is not above 100 nM. At ER-α in MCF-7 cells, the Emax is not below 40% and the DC50 was not above 100 nM.
Consider `Cc1ccccc1/C(=C(\c1ccc(/C=C/C(=O)O)cc1)c1ccc2[nH]ncc2c1C#N)C1CCC1` [Example 11, (E)-3-(4-((E)-1-(4-Cyano-1H-indazol-5-yl)-2-cyclobutyl-2-(o-tolyl)vinyl)phenyl)acrylic acid], for which, in the experiment on MCF-7 cells, the “MCF7 Viability Assay Max Response” value was “++ (++ = a single % value ≧ 40%)” and the IC50 is not above 100 nM. For the same compound, on ER-α in MCF-7 cells, the Emax is not below 40% and the DC50 was not above 100 nM.
As for `N#Cc1c(/C(=C(/c2ccccc2)C2CCC2)c2ccc(/C=C/C(=O)O)cc2)ccc2[nH]nc(F)c12` [Example 12, (E)-3-(4-((E)-1-(4-Cyano-3-fluoro-1H-indazol-5-yl)-2-cyclobutyl-2-phenylvinyl)phenyl)acrylic acid], in the experiment with MCF-7 cells, the “MCF7 Viability Assay Max Response” value is given as “++ (++ = a single % value ≧ 40%)” and the IC50 was not above 100 nM. For the same compound, at ER-α in MCF-7 cells, the Emax was not below 40% and the DC50 is not above 100 nM.
With `N#Cc1c(/C(=C(/c2ccccc2)C2CC2)c2ccc(/C=C/C(=O)O)cc2)ccc2[nH]ncc12` [Example 13, (E)-3-(4-((E)-1-(4-Cyano-1H-indazol-5-yl)-2-cyclopropyl-2-phenylvinyl)phenyl)acrylic acid], in the experiment with MCF-7 cells, the “MCF7 Viability Assay Max Response” value is “++ (++ = a single % value ≧ 40%)” and the IC50 is not above 100 nM. For the same compound, at ER-α in MCF-7 cells, the Emax is not below 40% and the DC50 is not above 100 nM.
For `N#Cc1c(/C(=C(/c2ccccc2)C2CC2)c2ccc(/C=C/C(=O)O)cc2)ccc2[nH]nc(F)c12` [Example 14, (E)-3-(4-((E)-1-(4-Cyano-3-fluoro-1H-indazol-5-yl)-2-cyclopropyl-2-phenylvinyl)phenyl)acrylic acid], in the experiment on MCF-7 cells, the “MCF7 Viability Assay Max Response” value is “++ (++ = a single % value ≧ 40%)” and the half-maximal inhibitory concentration (IC50) is not above 100 nM. Also, on ER-α in MCF-7 cells, the Emax is not below 40% and the DC50 is not above 100 nM.
On to `CC(C)/C(=C(/c1ccc(/C=C/C(=O)O)cc1)c1ccc2[nH]nc(F)c2c1)c1ccccc1` [Example 15, (E)-3-(4-((E)-1-(3-Fluoro-1H-indazol-5-yl)-3-methyl-2-phenylbut-1-en-1-yl)phenyl)acrylic acid], for which, in the experiment with MCF-7 cells, the “MCF7 Viability Assay Max Response” value is given as “++ (++ = a single % value ≧ 40%)” and the IC50 is not above 100 nM. On ER-α in MCF-7 cells, the Emax was not below 40% and the DC50 was not above 100 nM.
`O=C(O)/C=C/c1ccc(/C(=C(\c2ccccc2)C2CCC2)c2ccc3[nH]nnc3c2)cc1` [Example 17, (E)-3-(4-((E)-1-(1H-Benzo[d][1,2,3]triazol-5-yl)-2-cyclobutyl-2-phenylvinyl)phenyl)acrylic acid]: in the experiment on MCF-7 cells, the “MCF7 Viability Assay Max Response” value is “++ (++ = a single % value ≧ 40%)” and the IC50 was not above 100 nM. For the same compound, at ER-α in MCF-7 cells, the Emax was not below 40% and the DC50 was not above 100 nM.
